Source: US11827646B2, “Compounds for treating spinal muscular atrophy” (Hoffmann-La Roche Inc., priority 2014, dated 2023)

Experiments:
[1] = test system: full length SMN2 minigene mRNA (HEK293H cells stably transfected with SMN2-A minigene); assay: SMN2 minigene mRNA splicing RT-qPCR assay in cultured cells; format: cell-based; details: Homo sapiens, HEK293-H, 24 hours, 7-point concentration curve, 1.5-fold increase relative to vehicle, read-out: EC1.5x minigene (EC1.5x concentration for production of full length SMN2 minigene mRNA)
From the text: The term “EC1.5x concentration for production of full length SMN2 minigene mRNA” (or “EC1.5x minigene”) is defined as that concentration of test compound that 1 s effective m increasing the amount of full length SMN2 minigene mRNA to a level 1.5-fold greater relative to that in vehicle-treated cells.
The reverse transcription-quantitative PCR-based (RT-qPCR) assay is used to quantify the level of the full length SMN2 minigene (referred to herein by the term “FL SMN2mini”) mRNA containing SMN2 exon 7 in a HEK293H cell line stably transfected with said minigene and treated with a test compound. Materials used and respective sources are listed below in Table 1.
The SMN2-A minigene construct was prepared as described in International Patent Application WO2009/151546A1 page 145 paragraph [00400] to page 147 paragraph [00412](incl. FIG. 1 and FIG. 3 therein).
HEK293H cells stably transfected with the SMN2-A minigene construct (10,000 cells/well) are seeded in 200 μL of cell culture medium (DMEM plus 10% FBS, with 200 μg/mL hygromycin) in 96-well flat-bottom plates and the plate is immediately swirled to ensure proper dispersal of cells and the formation of an even monolayer of cells. Cells are allowed to attach for 6 hours. Test compounds are serially diluted 3.16-fold in 100% DMSO to generate a 7-point concentration curve. A solution of test compound (1 μL, 200× in DMSO) is added to each cell-containing well and the plate is incubated for 24 hours in a cell culture incubator (37° C., 5% CO2, 100% relative humidity). 2 replicates are prepared for each test compound concentration. The cells are then lysed in the Cells-To-Ct lysis buffer and the lysate is stored at −80° C.
Full length SMN2-A minigene and GAPDH mRNA are quantified using the primers and probes referenced in Table 2. Primer SMN Forward A (SEQ ID NO.1) hybridizes to a nucleotide sequence in exon 7 (nucleotide 22 to nucleotide 40), primer SMN Reverse A (SEQ ID NO.2) hybridizes to a nucleotide sequence in the coding sequence of Firefly luciferase, SMN Probe A (SEQ ID NO.3) hybridizes to a nucleotide sequence in exon 7 (nucleotide 50 to nucleotide 54) and exon 8 (nucleotide 1 to nucleotide 21). The combination of these three oligonucleotides detects only SMN1 or SMN2 minigenes (RT-qPCR) and will not detect endogenous SMN1 or SMN2 genes.
The SMN forward and reverse primers are used at final concentrations of 0.4 μM. The SMN probe is used at a final concentration of 0.15 μM. The GAPDH primers are used at final concentrations of 0.2 μM and the probe at 0.15 μM.
The SMN2-minigene GAPDH mix (15 μL total volume) is prepared by combining 7.5 μL of 2×RT-PCR buffer, 0.4 μL of 25×RT-PCR enzyme mix, 0.75 μL of 20×GAPDH primer-probe mix, 4.0075 μL of water, 2 μL of 10-fold diluted cell lysate, 0.06 μL of 100 µM SMN forward primer, 0.06 μL of 100 μM SMN reverse primer, and 0.225 μL of 100 μM SMN probe.
PCR is carried out at the following temperatures for the indicated time: Step 1: 48° C. (15 min); Step 2: 95° C. (10 min); Step 3: 95° C. (15 sec); Step 4: 60° C. (1 min); then repeat Steps 3 and 4 for a total of 40 cycles.
Each reaction mixture contains both SMN2-A minigene and GAPDH primers/probe sets (multiplex design), allowing simultaneous measurement of the levels of two transcripts.
The increase in the abundance of the FL SMN2mini mRNA relative to that in cells treated with vehicle control is determined from real-time PCR data using a modified ΔΔCt method (as described in Livak and Schmittgen, Methods, 2001, 25:402-8). The amplification efficiency E is calculated from the slope of the amplification curve for FL SMN2mini and GAPDH individually. The abundance of FL SMN2mini and GAPDH mRNA are then calculated as (1+E)^−Ct, where Ct is the threshold value for each amplicon. The abundance of FL SMN2mini mRNA is normalized to GAPDH mRNA abundance. […]

[2] = test system: SMN protein in SMA patient fibroblast cells (GM03813); assay: SMN protein assay in cultured cells (SMN HTRF); format: cell-based; details: Homo sapiens, SMA Type 1 patient fibroblasts, 48 hours; for EC (1.5-fold): 7-point concentration curve, 1.5 times SMN protein vs vehicle, read-out: EC1.5x SMN protein (EC1.5x concentration for SMN protein expression); for maximal fold induction: fold increase relative to vehicle control, read-out: max. fold increase of SMN protein
From the text: The term “EC1.5x concentration for SMN protein expression” (or “EC1.5x SMN protein”) is defined as that concentration of test compound that is effective in producing 1.5 times the amount of SMN protein in an SMA patient fibroblast cell compared to the amount produced from the vehicle control.
The SMN HTRF (homogeneous time resolved fluorescence) assay is used to quantify the level of SMN protein in SMA patient fibroblast cells treated with test compounds. Materials used and respective sources are listed below in Table 4.
Cells are thawed and cultured in DMEM-10% FBS for 72 hours. Cells are trypsinized, counted and re-suspended to a concentration of 25,000 cells/mL in DMEM-10% FBS. The cell suspensions are plated at 5,000 cells per well in a 96 well microtiter plate and incubated for 3 to […]. Test compounds are serially diluted 3.16-fold in 100% DMSO to generate a 7-point concentration curve. 1 μL of test compound solution is transferred to cell-containing wells and cells are incubated for 48 hours in a cell culture incubator (37° C., 5% CO2, […]). Triplicate samples are set up for each test compound concentration. After 48 hours, the supernatant is removed from the wells and 25 μL of the RIPA lysis buffer, containing protease inhibitors, is added to the wells and incubated with shaking at room temperature for 1 hour. 25 μL of the diluent is added and then 35 μL of the resulting lysate is transferred to a 384-well plate, where each well contains 5 μL of the antibody solution (1:100 dilution of anti-SMN d2 and anti-SMN kryptate in SMN reconstitution buffer). The plate is centrifuged for 1 minute to bring the solution to the bottom of the wells, then incubated overnight at room temperature. Fluorescence for each well of the plate at 665 nm and 620 nm is measured on an EnVision multilabel plate reader (Perkin-Elmer).
The normalized fluorescence signal is calculated for each sample, Blank and vehicle control well by dividing the signal at 665 nm by the signal at 620 nm. Normalizing the signal accounts for possible fluorescence quenching due to the matrix effect of the lysate. The ΔF value (a measurement of SMN protein abundance as a percent value) for each sample well is calculated by subtracting the normalized average fluorescence for the Blank control wells from the normalized fluorescence for each sample well, then dividing this difference by the normalized average fluorescence for the Blank control wells and multiplying the resulting value by 100. The ΔF value for each sample well represents the SMN protein abundance from test compound-treated samples. The ΔF value for each sample well is divided by the ΔF value for the vehicle control wells to calculate the fold increase in SMN protein abundance relative to the vehicle control. Table 5 provides EC1.5x concentrations for SMN protein expression that was obtained from the 7-point concentration data generated according to the above procedure for particular compounds of the present invention.
Table 6 provides the maximum fold increase of SMN protein that was obtained from the 7-point concentration data generated according to the above procedure for particular compounds of the present invention

Row | SMILES | EC (1.5-fold) [1] [µM] | EC (1.5-fold) [2] [µM] | maximal fold induction [2]
1 | Cc1cn2nc(-c3cc(=O)n4cc(N5C[C@@H](C)N[C@@H](C)C5)ccc4n3)ccc2n1 [Example 14, 7-[(3R,5S)-3,5-dimethylpiperazin-1-yl]-2-(2-methylimidazo[1,2-b]pyridazin-6-yl)pyrido[1,2-a]pyrimidin-4-one] | 0.0041 | 0.0176 | 1.86
2 | Cc1cn2nc(-c3cc(=O)n4cc(N5CCN6CCC[C@H]6C5)ccc4n3)ccc2n1 [Example 15, 7-[(8aS)-3,4,6,7,8,8a-hexahydro-1H-pyrrolo[1,2-a]pyrazin-2-yl]-2-(2-methylimidazo[1,2-b]pyridazin-6-yl)pyrido[1,2-a]pyrimidin-4-one] | 0.004 | 0.0212 | 1.94
3 | Cc1cn2nc(-c3cc(=O)n4cc(N5CCN6CCC[C@@]6(C)C5)ccc4n3)ccc2n1 [Example 16, 7-[(8aS)-8a-methyl-1,3,4,6,7,8-hexahydropyrrolo[1,2-a]pyrazin-2-yl]-2-(2-methylimidazo[1,2-b]pyridazin-6-yl)pyrido[1,2-a]pyrimidin-4-one] | 0.0011 | 0.003 | 1.83
4 | Cc1cn2nc(-c3cc(=O)n4cc(N5CCN6CCC[C@]6(C)C5)ccc4n3)ccc2n1 [Example 17, 7-[(8aR)-8a-methyl-1,3,4,6,7,8-hexahydropyrrolo[1,2-a]pyrazin-2-yl]-2-(2-methylimidazo[1,2-b]pyridazin-6-yl)pyrido[1,2-a]pyrimidin-4-one] | 0.0064 | 0.0202 | 1.98
5 | Cc1cn2nc(-c3cc(=O)n4cc(N5CC[C@@H](N6CCCC6)C5)ccc4n3)cc(C)c2n1 [Example 18, 2-(2,8-dimethylimidazo[1,2-b]pyridazin-6-yl)-7-[(3R)-3-pyrrolidin-1-ylpyrrolidin-1-yl]pyrido[1,2-a]pyrimidin-4-one] | 0.0036 | 0.025 | 1.75
6 | Cc1cn2nc(-c3cc(=O)n4cc(N5CCNC6(CC6)C5)ccc4n3)cc(C)c2n1 [Example 20, 7-(4,7-diazaspiro[2.5]octan-7-yl)-2-(2,8-dimethylimidazo[1,2-b]pyridazin-6-yl)pyrido[1,2-a]pyrimidin-4-one] | 0.0043 | 0.037 | 1.72
7 | Cc1cn2nc(-c3cc(=O)n4cc(N5CC[C@@H](N6CCCC6)C5)ccc4n3)ccc2n1 [Example 21, 2-(2-methylimidazo[1,2-b]pyridazin-6-yl)-7-[(3R)-3-pyrrolidin-1-ylpyrrolidin-1-yl]pyrido[1,2-a]pyrimidin-4-one] | 0.0096 | 0.0687 | 1.54
8 | Cc1cn2nc(-c3cc(=O)n4cc(N5CCNC(C)(C)C5)ccc4n3)cc(C)c2n1 [Example 22, 2-(2,8-dimethylimidazo[1,2-b]pyridazin-6-yl)-7-(3,3-dimethylpiperazin-1-yl)pyrido[1,2-a]pyrimidin-4-one] | 0.0009 | 0.0138 | 1.69
9 | Cc1cn2nc(-c3cc(=O)n4cc(N5CCNC(C)(C)C5)ccc4n3)ccc2n1 [Example 23, 7-(3,3-dimethylpiperazin-1-yl)-2-(2-methylimidazo[1,2-b]pyridazin-6-yl)pyrido[1,2-a]pyrimidin-4-one] | 0.0034 | 0.0239 | 1.63
10 | Cc1cn2nc(-c3cc(=O)n4cc(N5CCN[C@@H](C)C5)cc(C)c4n3)cc(C)c2n1 [Example 24, 2-(2,8-dimethylimidazo[1,2-b]pyridazin-6-yl)-9-methyl-7-[(3S)-3-methylpiperazin-1-yl]pyrido[1,2-a]pyrimidin-4-one] | 0.0004 | 0.0047 | 1.77
11 | Cc1cn2nc(-c3cc(=O)n4cc(N5CCN[C@H](C)C5)cc(C)c4n3)cc(C)c2n1 [Example 25, 2-(2,8-dimethylimidazo[1,2-b]pyridazin-6-yl)-9-methyl-7-[(3R)-3-methylpiperazin-1-yl]pyrido[1,2-a]pyrimidin-4-one] | 0.0005 | 0.0119 | 1.79
12 | Cc1cn2nc(-c3cc(=O)n4cc(N5CCNC6(CC6)C5)cc(C)c4n3)cc(C)c2n1 [Example 28, 7-(4,7-diazaspiro[2.5]octan-7-yl)-2-(2,8-dimethylimidazo[1,2-b]pyridazin-6-yl)-9-methyl-pyrido[1,2-a]pyrimidin-4-one] | 0.005 | 0.0497 | 1.72
13 | Cc1cn2nc(-c3cc(=O)n4cc(N5C[C@H](C)N[C@@H](C)C5)ccc4n3)cc(C)c2n1 [Example 29, 2-(2,8-dimethylimidazo[1,2-b]pyridazin-6-yl)-7-[(3S,5S)-3,5-dimethylpiperazin-1-yl]pyrido[1,2-a]pyrimidin-4-one] | 0.0003 | 0.0021 | 1.81
